Measured values: US20260184714A1, “SMALL MOLECULE MODULATORS OF PAR2 AND USES THEREOF” (PARMEDICS, INC., priority 2022, published 2026)
Read-outs that look alike come from different tables or passages of the source.

How the values were obtained:
[1] = biological target: T1, protease-activated receptor-2 (PAR2) (Homo sapiens, UniProt P55085); test: Digital imaging microscopy of intracellular Ca2+ changes (Gq/Ca2+ signaling); format: cell-based; conditions: 16HBE14o- cells; [Ca2+]i by digital imaging microscopy
T1 construct: a human bronchial epithelial cell line that naturally expressed PAR2; endogenous in cells; host or cells: 16HBE14o- human bronchial epithelial cells
T1 sequence (P55085 26-397): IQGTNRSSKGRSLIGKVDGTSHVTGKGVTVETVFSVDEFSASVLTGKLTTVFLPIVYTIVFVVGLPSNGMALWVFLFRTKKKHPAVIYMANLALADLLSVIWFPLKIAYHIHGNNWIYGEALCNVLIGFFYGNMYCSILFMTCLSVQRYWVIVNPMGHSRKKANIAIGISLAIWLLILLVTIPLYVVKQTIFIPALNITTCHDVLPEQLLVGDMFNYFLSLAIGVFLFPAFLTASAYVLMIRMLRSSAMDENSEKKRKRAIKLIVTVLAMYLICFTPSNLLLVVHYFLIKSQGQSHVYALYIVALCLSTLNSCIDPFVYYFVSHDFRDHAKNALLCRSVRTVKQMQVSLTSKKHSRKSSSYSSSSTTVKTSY
Protocol: (§1) Compound I-1 (labelled as “C I-1” in FIGS. 1A-1D) was evaluated for its ability to antagonize protease-activated receptor-2 (PAR2) in several cellular assays using a human bronchial epithelial cell line that naturally expressed PAR2 (16HBE14o− cells; see FIG. 1A-1D).
(§2) It is known that two primary signaling outcomes of PAR2 activation are the initiation of Gq/Ca^2+ and β-arrestin/MAPK signaling. To determine whether the observed in vitro physiologic antagonism represented partial antagonism or intracellular signaling dependent antagonism, digital imaging microscopy was used to assay intracellular Ca^2+ changes ([Ca^2+ ]i; […]) as a measure of Gq/Ca^2+ signaling and an In Cell Western approach for measuring phosphorylation of extracellular regulated kinase ½ (ICW of pERK ½; see FIG. 1D) as an assay for β-arrestin/MAPK signaling. […] It is concluded that Compound I-1 is a β-arrestin/MAPK biased PAR2 antagonist.

[2] = In vivo pharmacokinetics (plasma concentration by LC-MS/MS, non-compartmental analysis); conditions: mouse; for concentration at 24 h: read-out: Clast (24 h); for Cmax: read-out: Co/Cmax
Protocol: Compound I-1 was evaluated for its plasma stability and oral bioavailability. Mice were fasted overnight before dosing, with water provided ad libitum throughout the study. Three animals are dosed via gavage needle for oral administration at 10 mg/kg (10 mL/kg), via tail vein injection for intravenous administration at […], and via injection in the lower right quadrant of the abdomen for intraperitoneal injections at 10 mg/kg (10 mL/kg). Blood samples (25-30 μL per sample) were taken via saphenous or submandibular vein at 5, 15, 30 min, and 1, 2, 4, 6, 8, 24 h post dose and drug concentration determined by LC-MS/MS. Plasma concentrations were then graphed vs time and pharmacokinetic parameters (terminal half life, t1/2; initial plasma concentration, Co; area under the curve (AUC); volume of distribution at steady-state. Vss; total plasma clearance CLp; mean residence time, MRT; maximum plasma concentration Cmax; time to reach Cmax, tmax; and bioavailability, F) were determined using non-compartmental analysis.

[3] = biological target: T1, protease-activated receptor-2 (PAR2); test: xCELLigence real time cellular analysis (RTCA) of PAR2 antagonism; format: cell-based; conditions: 16HBE14o- cells; 5 min pre-incubation with 300 nM-10 μM compound, then 300 nM 2AT or 30 nM trypsin; high concentrations
Protocol: as §1
In the first assay to detect an in vitro physiological response, the xCELLigence real time cellular analysis (RTCA) was used.
Following overnight growth, varying concentrations of Compound I-1 was added to individual wells (in quadruplicate) in final concentrations of 300 nM, 1 μM, 3 μM and 10 μM. […] The upward deflection and recovery of the Cell Index shown in response to control 300 nM 2AT (FIG. 1A) or 30 nM (FIG. 1B) represents a typical EC50 response.

[4] = tested on: airway hyperresponsiveness induced by Alternaria alternata; test: Alternaria alternata-induced asthma model, total airway resistance to methacholine (FLEXIVENT); format: in vivo, mouse; conditions: mice, Alternaria alternata intranasally three times over 8 days, with Compound I-1
Protocol: Alternaria alternata is a fungal allergen that activates PAR2 in the airways to promote inflammation and bronchoconstriction. Compound I-1 was evaluated in vivo to assess whether it can be used to treat airway hyperresponsiveness induced by Alternaria alternata. FIG. 3 summarizes the results for this in vivo study.
Alternaria alternata or saline (A data points in FIG. 3) were administered intranasally in a mouse asthma model three times over an 8 day period, in the presence (Q data points in FIG. 3) or absence (o data points in FIG. 3) of Compound I-1. Total airway resistance in response to increasing amounts of methacholine was monitored using the FLEXIVENT® (Scireq, Quebec, Canada) system.

[5] = tested on: stress-induced migraine-like pain; test: Stress-induced migraine model, facial withdrawal response after SNP; format: in vivo, mouse; conditions: mice, restraint stress for 3 days, 14-day recovery, then SNP
Protocol: Migraine headaches are characterized by sensitivity of pain-sensing neurons in the dura mater to innocuous stimuli, e.g., the nitric oxide donor, sodium nitroprusside (SNP). Compound I-1 was evaluated in vivo using a mouse migraine model to assess whether it can be used to treat stress-induced migraine-like pain. FIG. 2 summarizes the results for this in vivo study.
Mice were subjected to restraint stress for 3 days (□ and ⋄ data points in FIG. 2) or left unrestrained (∘ and Δ data points in FIG. 2), resulting in a significant facial withdrawal response up to 3 days post-stress.

[6] = biological target: T1, protease-activated receptor-2 (PAR2); test: In Cell Western of pERK 1/2 (β-arrestin/MAPK signaling); format: cell-based; conditions: 16HBE14o- cells; ICW of pERK 1/2
Protocol: as §1, §2

For `CC(C)C[C@@H]1C(=O)N2C(CN(CC3CCNCC3)C(=O)[C@@H]2CC(C)C)N1C(=O)c1ccco1` (stereo partly drawn) [Compound I-1, 4-(((2R,5S)-1-(furan-2-carbonyl)-2,5-diisobutyl-3,6-dioxohexahydroimidazolo [1,2-a]pyrazin-7(1H)-yl)methyl)piperidin-1-ium chloride], the “Antagonism at the Gq/Ca2+ signaling pathway” value [1] was “not observed”, the F ([2]; IP, 10 mg/kG) was 89.8% and the F ([2]; Oral, 10 mg/kG) was 84.7%. It also gave an AUC ([2]; plasma, IP, 10 mg/kG) of 2670 ng·h/mL, a Tmax ([2]; plasma, IP, 10 mg/kG) of 0.25 h and a half-life ([2]; plasma, IP, 10 mg/kG) of 7.97 h. The concentration at 24 h ([2]; plasma, IP, 10 mg/kG) was 12.9 ng/mL, the Cmax ([2]; plasma, IP, 10 mg/kG) was 689 ng/mL and the AUC ([2]; plasma, IV, 2 mg/kG) was 595 ng·h/mL. It also gave a half-life ([2]; plasma, IV, 2 mg/kG) of 7.9 h, a clearance ([2]; plasma, IV, 2 mg/kG, read-out: CLp) of 56.6 mL/min/kg and a concentration at 24 h ([2]; plasma, IV, 2 mg/kG) of 1.15 ng/mL. It also gave a Cmax ([2]; plasma, IV, 2 mg/kG) of 1330 ng/mL, a Vd ([2]; plasma, IV, 2 mg/kG, read-out: Vss) of 8.29 L/kg and an AUC ([2]; plasma, Oral, 10 mg/kG) of 2520 ng·h/mL. It also gave a Tmax ([2]; plasma, Oral, 10 mg/kG) of 0.5 h, a half-life ([2]; plasma, Oral, 10 mg/kG) of 7.45 h and a concentration at 24 h ([2]; plasma, Oral, 10 mg/kG) of 11.4 ng/mL. The Cmax ([2]; plasma, Oral, 10 mg/kG) was 632 ng/mL, the “Cell Index response to PAR2 activation (antagonism)” value [3] was “reduced the response” and the “Total airway resistance in response to increasing methacholine” value [4] was “has promise as a therapeutic for reducing allergen-induced asthma attacks”. The “Facial withdrawal response after SNP” value [5] was “eliminated” and the “Antagonism of the β-arrestin/MAPK-signaling pathway” value [6] was “significant antagonism”.
